Measurements published in ChEMBL document CHEMBL1121673, “Diuretic agents related to indapamide. 1. Synthesis and activity of 1-substituted 2-(4-chloro-3-sulfamoylbenzamido)isoindolines” (1981).

Columns and labels:
Format in all cases: functional
[1] = system: Rattus norvegicus; assay: Amount of sodium ions excreted during 18 hours after single administration of 5 mg/kg of the test agent (protocol A-2) on 11 rats
[2] = Ratio of amount of Na+ excreted to amount of K+ excreted in urine of water-loaded rats
[3] = system: Rattus norvegicus; assay: Amount of sodium ions excreted during 4 hr after oral administration of 5 mg/kg of the test agent (protocol B) on 5 male and female rats
[4] = Ratio of amount of Na+ excreted to amount of K+ excreted in urine of rat of protocol A-1 test
[5] = system: Rattus norvegicus; assay: Total volume of urine excreted during 18 hours after single administration of 5 mg/kg of the test agent (protocol A-1) on 6 rats
[6] = system: Rattus norvegicus; assay: Total volume of urine excreted during 18 hours after single administration of 5 mg/kg of the test agent (protocol A-2) on 11 rats
[7] = system: Rattus norvegicus; assay: Amount of potassium ions excreted during 18 hours after single administration of 5 mg/kg of the test agent (protocol A-1) on 6 rats
[8] = system: Rattus norvegicus; assay: Amount of potassium ions excreted during 4 hr after oral administration of 5 mg/kg of the test agent (protocol B) on 5 male and female rats
[9] = Ratio of amount of Na+ excreted to amount of K+ excreted in urine of rat of protocol A-2 test
[10] = system: Rattus norvegicus; assay: Amount of sodium ions excreted during 18 hours after single administration of 5 mg/kg of the test agent (protocol A-1) on 6 rats
[11] = system: Rattus norvegicus; assay: Amount of potassium ions excreted during 18 hours after single administration of 5 mg/kg of the test agent (protocol A-2) on 11 rats
[12] = system: Rattus norvegicus; assay: Total volume of urine excreted during 4 hr after oral administration of 5 mg/kg of the test agent (protocol B) on 5 male and female rats
[13] = system: Rattus norvegicus; assay: Amount of potassium ions excreted during 18 hours after single administration of 5 mg/kg of the test agent (protocol A-2) on 6 rats
[14] = system: Rattus norvegicus; assay: Amount of sodium ions excreted during 18 hours after single administration of 5 mg/kg of the test agent (protocol A-2) on 6 rats
[15] = system: Rattus norvegicus; assay: Total volume of urine excreted during 18 hours after single administration of 5 mg/kg of the test agent (protocol A-2) on 6 rats

Compound	Urine Na+ [1]	Ratio [2]	Urine Na+ [3]	Ratio [4]	Urine [5]	Urine [6]	Urine K+ [7]	Urine K+ [8]	Ratio [9]	Urine Na+ [10]	Urine K+ [11]	Urine [12]	Urine K+ [13]	Urine Na+ [14]	Urine [15]
NS(=O)(=O)c1cc(C(=O)NN2Cc3ccccc3C2C(=O)O)ccc1Cl (stereo not drawn)	2.199 m equiv	0.855	0.109 m equiv	0.984	9.36 mL	9.36 mL	1.569 m equiv	0.1305 m equiv	1.0809	1.59 m equiv	2.075 m equiv	87.1 mL	–	–	–
NS(=O)(=O)c1cc(C(=O)NN2Cc3ccccc3C2CO)ccc1Cl (stereo not drawn)	1.414 m equiv	1.638	0.2629 m equiv	1.084	11.17 mL	11.45 mL	1.486 m equiv	0.1657 m equiv	0.943	1.622 m equiv	1.512 m equiv	106 mL	–	–	–
CC1Cc2ccccc2N1NC(=O)c1ccc(Cl)c(S(N)(=O)=O)c1 (stereo not drawn) [INDAPAMIDE]	–	2.738	0.705 m equiv	1.143	12.83 mL	–	2.198 m equiv	0.2686 m equiv	1.0526	2.563 m equiv	–	130.6 mL	2.78 m equiv	2.947 m equiv	16.67 mL
CC1c2ccccc2CN1NC(=O)c1ccc(Cl)c(S(N)(=O)=O)c1 (stereo not drawn) [ZIDAPAMIDE]	–	3.11	0.6927 m equiv	1.128	11.67 mL	–	1.976 m equiv	0.2398 m equiv	1.2204	2.193 m equiv	–	127 mL	2.56 m equiv	3.058 m equiv	16.17 mL
